Like-named read-outs stand apart in the source and are kept apart here. Positions of bridges follow the written chain, without caps; N, C: chain ends. Non-standard residues stand in square brackets, D forms with d. Residues, ends and D or L forms follow the SMILES beside them. Bpa = N[C@@H](Cc1ccc(C(=O)c2ccccc2)cc1)C(=O)O; 1Nal = N[C@@H](Cc1cccc2ccccc12)C(=O)O; Cit = NC(=O)NCCC[C@H](N)C(=O)O
Assays:
Assay in all cases: cell-based
hNav1.7 = hNav1.7 (Homo sapiens, UniProt Q15858); type: cell-based
Chain of hNav1.7 (Q15858 whole entry, looked up): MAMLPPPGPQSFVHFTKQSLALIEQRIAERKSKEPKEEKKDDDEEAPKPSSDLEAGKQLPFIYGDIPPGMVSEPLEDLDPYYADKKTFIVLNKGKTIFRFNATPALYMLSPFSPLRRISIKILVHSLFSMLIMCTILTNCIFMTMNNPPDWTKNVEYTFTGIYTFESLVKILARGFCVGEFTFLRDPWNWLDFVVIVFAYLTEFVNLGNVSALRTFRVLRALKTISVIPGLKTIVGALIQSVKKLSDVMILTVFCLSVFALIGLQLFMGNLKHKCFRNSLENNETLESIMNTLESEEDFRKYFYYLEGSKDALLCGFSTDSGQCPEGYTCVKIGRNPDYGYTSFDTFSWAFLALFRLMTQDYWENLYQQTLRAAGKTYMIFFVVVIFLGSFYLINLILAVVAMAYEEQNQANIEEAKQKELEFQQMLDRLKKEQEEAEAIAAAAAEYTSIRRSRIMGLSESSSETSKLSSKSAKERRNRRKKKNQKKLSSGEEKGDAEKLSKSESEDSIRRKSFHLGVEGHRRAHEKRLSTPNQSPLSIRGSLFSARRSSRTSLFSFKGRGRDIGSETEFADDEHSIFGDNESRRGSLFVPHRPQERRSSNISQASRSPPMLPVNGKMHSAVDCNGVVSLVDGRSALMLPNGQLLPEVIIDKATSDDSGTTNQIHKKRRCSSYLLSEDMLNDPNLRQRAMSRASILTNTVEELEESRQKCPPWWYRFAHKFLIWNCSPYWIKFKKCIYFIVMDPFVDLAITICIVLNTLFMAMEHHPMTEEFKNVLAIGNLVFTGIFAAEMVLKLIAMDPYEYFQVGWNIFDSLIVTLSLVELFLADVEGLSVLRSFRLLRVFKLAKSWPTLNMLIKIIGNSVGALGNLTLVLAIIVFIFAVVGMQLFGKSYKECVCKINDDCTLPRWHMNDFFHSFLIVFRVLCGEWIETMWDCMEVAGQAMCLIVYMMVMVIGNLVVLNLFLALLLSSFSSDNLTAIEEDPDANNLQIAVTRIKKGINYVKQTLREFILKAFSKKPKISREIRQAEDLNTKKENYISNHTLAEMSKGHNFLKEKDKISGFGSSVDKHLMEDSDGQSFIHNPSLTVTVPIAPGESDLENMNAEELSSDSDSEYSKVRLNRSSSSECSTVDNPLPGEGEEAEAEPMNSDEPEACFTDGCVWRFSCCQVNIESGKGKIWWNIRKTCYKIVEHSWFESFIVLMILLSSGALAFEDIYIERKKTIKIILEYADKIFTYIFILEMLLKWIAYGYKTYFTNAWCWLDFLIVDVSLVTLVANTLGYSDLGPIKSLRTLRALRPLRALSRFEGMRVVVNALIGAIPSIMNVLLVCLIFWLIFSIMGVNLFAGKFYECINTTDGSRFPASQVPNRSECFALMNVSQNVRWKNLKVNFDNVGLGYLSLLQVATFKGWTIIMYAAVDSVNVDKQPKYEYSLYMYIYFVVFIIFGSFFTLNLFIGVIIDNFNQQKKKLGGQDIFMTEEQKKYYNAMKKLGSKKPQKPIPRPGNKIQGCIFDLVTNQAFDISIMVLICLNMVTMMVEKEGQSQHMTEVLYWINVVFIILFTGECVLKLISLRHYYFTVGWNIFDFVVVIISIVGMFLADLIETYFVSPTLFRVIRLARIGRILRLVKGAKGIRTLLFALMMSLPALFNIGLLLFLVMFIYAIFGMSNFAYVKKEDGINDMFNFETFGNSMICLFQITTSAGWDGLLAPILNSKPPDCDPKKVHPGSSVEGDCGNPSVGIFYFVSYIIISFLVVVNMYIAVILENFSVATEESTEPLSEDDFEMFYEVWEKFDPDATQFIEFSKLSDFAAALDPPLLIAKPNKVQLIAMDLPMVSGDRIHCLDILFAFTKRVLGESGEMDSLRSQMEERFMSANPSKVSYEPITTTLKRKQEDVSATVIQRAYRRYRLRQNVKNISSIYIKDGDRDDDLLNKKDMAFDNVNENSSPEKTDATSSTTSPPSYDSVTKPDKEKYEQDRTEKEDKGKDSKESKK

hNav1.5 = hNav1.5 (Homo sapiens, UniProt Q14524)
Chain of hNav1.5 (Q14524 whole entry, looked up): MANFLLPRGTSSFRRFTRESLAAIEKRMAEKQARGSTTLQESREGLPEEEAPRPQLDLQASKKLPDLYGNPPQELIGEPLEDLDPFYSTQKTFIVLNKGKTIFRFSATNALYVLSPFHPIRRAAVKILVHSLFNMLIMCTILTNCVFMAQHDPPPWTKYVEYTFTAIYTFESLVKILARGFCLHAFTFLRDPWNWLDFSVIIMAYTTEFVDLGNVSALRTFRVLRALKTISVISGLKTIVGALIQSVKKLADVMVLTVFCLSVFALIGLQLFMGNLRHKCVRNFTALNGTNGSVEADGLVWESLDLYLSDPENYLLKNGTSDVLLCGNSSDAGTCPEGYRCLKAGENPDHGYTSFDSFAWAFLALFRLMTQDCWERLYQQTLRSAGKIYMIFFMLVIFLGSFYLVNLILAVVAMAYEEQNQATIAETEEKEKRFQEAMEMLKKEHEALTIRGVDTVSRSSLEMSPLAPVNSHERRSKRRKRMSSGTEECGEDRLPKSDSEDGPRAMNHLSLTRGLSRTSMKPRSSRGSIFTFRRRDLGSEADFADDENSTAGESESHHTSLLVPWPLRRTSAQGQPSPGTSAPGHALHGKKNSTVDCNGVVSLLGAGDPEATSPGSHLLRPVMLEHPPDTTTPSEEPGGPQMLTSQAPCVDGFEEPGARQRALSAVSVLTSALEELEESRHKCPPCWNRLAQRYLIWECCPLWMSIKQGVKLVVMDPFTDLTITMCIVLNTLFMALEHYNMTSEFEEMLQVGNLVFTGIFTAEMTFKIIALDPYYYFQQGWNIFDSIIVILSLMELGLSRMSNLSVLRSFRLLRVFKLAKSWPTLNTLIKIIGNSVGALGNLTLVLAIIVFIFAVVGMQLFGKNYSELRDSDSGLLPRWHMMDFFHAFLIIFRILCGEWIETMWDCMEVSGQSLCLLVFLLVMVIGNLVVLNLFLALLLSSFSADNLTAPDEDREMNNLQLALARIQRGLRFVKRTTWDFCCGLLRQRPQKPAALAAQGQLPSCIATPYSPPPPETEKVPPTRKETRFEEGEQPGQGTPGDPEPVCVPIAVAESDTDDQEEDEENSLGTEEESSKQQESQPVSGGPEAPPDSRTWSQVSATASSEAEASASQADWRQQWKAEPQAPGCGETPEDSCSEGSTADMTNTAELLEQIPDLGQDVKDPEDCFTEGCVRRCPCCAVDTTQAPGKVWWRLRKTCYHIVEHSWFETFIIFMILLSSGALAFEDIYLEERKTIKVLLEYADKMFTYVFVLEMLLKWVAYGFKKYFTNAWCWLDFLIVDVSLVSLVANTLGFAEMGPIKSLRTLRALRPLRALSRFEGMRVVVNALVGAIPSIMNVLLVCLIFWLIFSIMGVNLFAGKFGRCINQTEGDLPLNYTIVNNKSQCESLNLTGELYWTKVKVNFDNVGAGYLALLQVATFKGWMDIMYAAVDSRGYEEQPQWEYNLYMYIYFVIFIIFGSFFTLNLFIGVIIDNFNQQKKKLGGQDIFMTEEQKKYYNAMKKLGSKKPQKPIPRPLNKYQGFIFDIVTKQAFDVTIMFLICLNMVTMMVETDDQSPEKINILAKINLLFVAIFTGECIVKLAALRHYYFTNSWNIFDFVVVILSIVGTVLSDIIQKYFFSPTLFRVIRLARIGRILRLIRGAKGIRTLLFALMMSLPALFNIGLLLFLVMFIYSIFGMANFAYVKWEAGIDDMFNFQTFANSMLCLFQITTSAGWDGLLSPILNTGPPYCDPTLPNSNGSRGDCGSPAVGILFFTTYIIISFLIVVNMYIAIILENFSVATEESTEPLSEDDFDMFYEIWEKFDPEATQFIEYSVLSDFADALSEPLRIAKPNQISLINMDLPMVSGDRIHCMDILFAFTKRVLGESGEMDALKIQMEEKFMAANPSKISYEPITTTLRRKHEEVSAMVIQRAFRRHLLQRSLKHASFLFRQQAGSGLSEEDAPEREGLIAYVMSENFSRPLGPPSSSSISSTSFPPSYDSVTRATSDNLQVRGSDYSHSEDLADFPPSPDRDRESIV

hNav1.3 = hNav1.3 (Homo sapiens, UniProt Q9NY46)
[1] = IonWorks Quattro, use-dependent block, hNav1.7, read-out: IWQ Use Nav1.7
[2] = IonWorks Quattro, use-dependent block, hNav1.5, read-out: IWQ Use Nav1.5
[3] = IonWorks Quattro, use-dependent block, hNav1.3, read-out: IWQ Use Nav1.3
[4] = IonWorks Quattro, use-dependent protocol, hNav1.7, read-out: IWQ Use Nav1.7
[5] = IonWorks Quattro, use-dependent protocol, hNav1.5, read-out: IWQ Use Nav1.5
[6] = IonWorks Quattro, use-dependent protocol, hNav1.3, read-out: IWQ Use Nav1.3

SMILES	IC50 (hNav1.7; [1])	IC50 (hNav1.5; [2])	IC50 (hNav1.3; [3])	other results
CC[C@H](C)[C@@H]1NC(=O)[C@@H]2CSSC[C@@H]3NC(=O)[C@H](C(C)C)NC(=O)[C@H](CC(C)C)NC(=O)[C@H](CC(N)=O)NC(=O)[C@@H]4CCCN4C(=O)[C@H](CCCNC(=N)N)NC(=O)[C@H](CSSC[C@H](NC(=O)[C@@H](N)CC(=O)O)C(=O)N[C@@H](CC(C)C)C(=O)NCC(=O)N[C@@H](Cc4ccccc4)C(=O)N[C@@H](CCSC)C(=O)N[C@@H](CCCNC(=N)N)C(=O)N[C@@H](CCCCN)C(=O)N2)NC(=O)[C@H](CSSC[C@@H](C(=O)N[C@@H](CCCCN)C(=O)N[C@@H](Cc2ccc(O)cc2)C(=O)N[C@H](C(=O)N[C@@H](Cc2ccccc2)C(N)=O)C(C)C)NC(=O)[C@H](CCCCN)NC(=O)[C@H](CCCCN)NC(=O)[C@H](Cc2cnc[nH]2)NC(=O)[C@H]([C@@H](C)O)NC(=O)[C@H](CCCNC(=N)N)NC(=O)[C@H](CO)NC3=O)NC(=O)[C@H](CCCCN)NC(=O)[C@H](CC(=O)O)NC(=O)[C@H](CC(N)=O)NC(=O)[C@H](CC(=O)O)NC(=O)[C@@H]2CCCN2C1=O [compound 56] (H-DCLGFMRKCIPDNDKCCRPNLVCSRTHKKCKYVF-NH2; disulfide 2-17, 9-23, 16-30)				IC50 (hNav1.7): 20.1 µM; IC50 (hNav1.5; IWQ Use Nav1.5 (μM)): 14.7 µM; IC50 (hNav1.3): 24.5 µM
CC[C@H](C)[C@@H]1NC(=O)[C@@H]2CSSC[C@@H]3NC(=O)[C@H](C(C)C)NC(=O)[C@H](CC(C)C)NC(=O)[C@H](CC(N)=O)NC(=O)[C@@H]4CCCN4C(=O)[C@H](CCCNC(=N)N)NC(=O)[C@H](CSSC[C@H](NC(=O)[C@@H](N)CC(=O)O)C(=O)N[C@@H](CC(C)C)C(=O)NCC(=O)N[C@@H](Cc4ccccc4)C(=O)N[C@@H](Cc4c[nH]c5ccccc45)C(=O)N[C@@H](CCCNC(=N)N)C(=O)N[C@@H](CCCCN)C(=O)N2)NC(=O)[C@H](CSSC[C@@H](C(=O)N[C@@H](CCCCN)C(=O)N[C@@H](Cc2ccc(O)cc2)C(=O)N[C@H](C(=O)N[C@@H](Cc2ccccc2)C(N)=O)C(C)C)NC(=O)[C@H](Cc2c[nH]c4ccccc24)NC(=O)[C@H](CCCCN)NC(=O)[C@H](Cc2c[nH]cn2)NC(=O)[C@H](CC(C)C)NC(=O)[C@H](CCCNC(=N)N)NC(=O)[C@H](CO)NC3=O)NC(=O)[C@H](CCCCN)NC(=O)[C@H](CC(=O)O)NC(=O)[C@H](CC(N)=O)NC(=O)[C@H](CC(=O)O)NC(=O)[C@@H]2CCCN2C1=O [compound 456] (H-DCLGFWRKCIPDNDKCCRPNLVCSRLHKWCKYVF-NH2; disulfide 2-17, 9-23, 16-30)	0.03 µM	> 5 µM	0.01 µM	
CC[C@H](C)[C@@H]1NC(=O)[C@@H]2CSSC[C@@H]3NC(=O)[C@H](C(C)C)NC(=O)[C@H](CC(C)C)NC(=O)[C@H](CC(N)=O)NC(=O)[C@@H]4CCCN4C(=O)[C@H](CCCNC(=N)N)NC(=O)[C@H](CSSC[C@H](NC(=O)[C@@H](N)CC(=O)O)C(=O)N[C@@H](CC(C)C)C(=O)NCC(=O)N[C@@H](C(C)C)C(=O)N[C@@H](CCSC)C(=O)N[C@@H](CCCNC(=N)N)C(=O)N[C@@H](CCCCN)C(=O)N2)NC(=O)[C@H](CSSC[C@@H](C(=O)N[C@@H](CCCCN)C(=O)N[C@@H](Cc2ccc(O)cc2)C(=O)N[C@H](C(=O)N[C@@H](Cc2ccccc2)C(N)=O)C(C)C)NC(=O)[C@H](Cc2c[nH]c4ccccc24)NC(=O)[C@H](CCCCN)NC(=O)[C@H](Cc2c[nH]cn2)NC(=O)[C@H]([C@@H](C)O)NC(=O)[C@H](CCCNC(N)=O)NC(=O)[C@H](CO)NC3=O)NC(=O)[C@H](CCCCN)NC(=O)[C@H](CC(=O)O)NC(=O)[C@H](CC(N)=O)NC(=O)[C@H](CC(=O)O)NC(=O)[C@@H]2CCCN2C1=O [compound 713] (H-DCLGVMRKCIPDNDKCCRPNLVCS[Cit]THKWCKYVF-NH2; disulfide 2-17, 9-23, 16-30)				IC50 (hNav1.7; [4]): 0.83 µM; IC50 (hNav1.5; [5]): 36 µM; IC50 (hNav1.3; [6]): 4.2 µM
CC[C@H](C)[C@@H]1NC(=O)[C@@H]2CSSC[C@@H]3NC(=O)[C@H](C(C)C)NC(=O)[C@H](CCSC)NC(=O)[C@H](CC(N)=O)NC(=O)[C@@H]4CCCN4C(=O)[C@H](CCCNC(=N)N)NC(=O)[C@H](CSSC[C@H](NC(=O)[C@@H](N)CC(=O)O)C(=O)N[C@@H](CC(C)C)C(=O)NCC(=O)N[C@@H](Cc4ccccc4)C(=O)N[C@@H](CCSC)C(=O)N[C@@H](CCCNC(=N)N)C(=O)N[C@@H](CCCCN)C(=O)N2)NC(=O)[C@H](CSSC[C@@H](C(=O)N[C@@H](CCCCN)C(=O)N[C@@H](Cc2ccc(O)cc2)C(=O)N[C@H](C(=O)N[C@@H](Cc2ccccc2)C(N)=O)C(C)C)NC(=O)[C@H](Cc2c[nH]c4ccccc24)NC(=O)[C@H](CCCCN)NC(=O)[C@H](Cc2c[nH]cn2)NC(=O)[C@H]([C@@H](C)O)NC(=O)[C@H](CCCNC(=N)N)NC(=O)[C@H](CO)NC3=O)NC(=O)[C@H](CCCCN)NC(=O)[C@H](CC(=O)O)NC(=O)[C@H](CC(N)=O)NC(=O)[C@H](CC(=O)O)NC(=O)[C@@H]2CCCN2C1=O [compound 120] (H-DCLGFMRKCIPDNDKCCRPNMVCSRTHKWCKYVF-NH2; disulfide 2-17, 9-23, 16-30)				IC50 (hNav1.7; IonWorks Quattro, Use, read-out: IWQ Use Nav1.7): 0.14 µM; IC50 (hNav1.5; IonWorks Quattro, Use, read-out: IWQ Use Nav1.5): 9.54 µM; IC50 (hNav1.3; IonWorks Quattro, Use, read-out: IWQ Use Nav1.3): 0.09 µM
CC[C@H](C)[C@@H]1NC(=O)[C@@H]2CSSC[C@@H]3NC(=O)[C@H](C(C)C)NC(=O)[C@H](CC(C)C)NC(=O)[C@H](CC(N)=O)NC(=O)[C@@H]4CCCN4C(=O)[C@H](CCCNC(=N)N)NC(=O)[C@H](CSSC[C@H](NC(=O)[C@@H](N)CC(=O)O)C(=O)N[C@@H](CC(C)C)C(=O)NCC(=O)N[C@@H](C)C(=O)N[C@@H](CCSC)C(=O)N[C@@H](CCCNC(=N)N)C(=O)N[C@@H](CCCCN)C(=O)N2)NC(=O)[C@H](CSSC[C@@H](C(=O)N[C@@H](CCCCN)C(=O)N[C@@H](Cc2cccc4ccccc24)C(=O)N[C@H](C(=O)N[C@@H](Cc2ccccc2)C(N)=O)C(C)C)NC(=O)[C@H](Cc2c[nH]c4ccccc24)NC(=O)[C@H](CCCCN)NC(=O)[C@H](Cc2c[nH]cn2)NC(=O)[C@H]([C@@H](C)O)NC(=O)[C@H](CCCNC(=N)N)NC(=O)[C@H](CO)NC3=O)NC(=O)[C@H](CCCCN)NC(=O)[C@H](CC(=O)O)NC(=O)[C@H](CC(N)=O)NC(=O)[C@H](CC(=O)O)NC(=O)[C@@H]2CCCN2C1=O [compound 254] (H-DCLGAMRKCIPDNDKCCRPNLVCSRTHKWCK[1Nal]VF-NH2; disulfide 2-17, 9-23, 16-30)	0.06 µM	5 µM	0.2 µM	
CC[C@H](C)[C@@H]1NC(=O)[C@@H]2CSSC[C@@H]3NC(=O)[C@H](C(C)C)NC(=O)[C@H](CC(C)C)NC(=O)[C@H](CC(N)=O)NC(=O)[C@@H]4CCCN4C(=O)[C@H](CCCNC(=N)N)NC(=O)[C@H](CSSC[C@H](NC(=O)[C@@H](N)CC(=O)O)C(=O)N[C@@H](CC(C)C)C(=O)NCC(=O)N[C@@H](Cc4cccnc4)C(=O)N[C@@H](CCSC)C(=O)N[C@@H](CCCNC(=N)N)C(=O)N[C@@H](CCCCN)C(=O)N2)NC(=O)[C@H](CSSC[C@@H](C(=O)N[C@@H](CCCCN)C(=O)N[C@@H](Cc2ccc(O)cc2)C(=O)N[C@H](C(=O)N[C@@H](Cc2ccccc2)C(N)=O)C(C)C)NC(=O)[C@H](Cc2c[nH]c4ccccc24)NC(=O)[C@H](CCCCN)NC(=O)[C@H](Cc2c[nH]cn2)NC(=O)[C@H]([C@@H](C)O)NC(=O)[C@H](CCCNC(=N)N)NC(=O)[C@H](CO)NC3=O)NC(=O)[C@H](CCCCN)NC(=O)[C@H](CC(=O)O)NC(=O)[C@H](CC(N)=O)NC(=O)[C@H](CC(=O)O)NC(=O)[C@@H]2CCCN2C1=O [compound 596]	2.6 µM	> 5 µM	> 5 µM	
CC[C@H](C)[C@@H]1NC(=O)[C@@H]2CSSC[C@@H]3NC(=O)[C@H](C(C)C)NC(=O)[C@H](CC(C)C)NC(=O)[C@H](CC(N)=O)NC(=O)[C@@H]4CCCN4C(=O)[C@H](CCCNC(=N)N)NC(=O)[C@H](CSSC[C@H](NC(=O)[C@@H](N)CC(=O)O)C(=O)N[C@@H](CC(C)C)C(=O)NCC(=O)N[C@@H](C)C(=O)N[C@@H](CCSC)C(=O)N[C@@H](CCCNC(=N)N)C(=O)N[C@@H](CCCCN)C(=O)N2)NC(=O)[C@H](CSSC[C@@H](C(=O)N[C@@H](CCCCN)C(=O)N[C@@H](Cc2ccc(O)cc2)C(=O)N[C@H](C(=O)N[C@@H](Cc2ccccc2)C(N)=O)C(C)C)NC(=O)[C@H](Cc2c[nH]c4ccccc24)NC(=O)[C@H](CCCNC(N)=O)NC(=O)[C@H](Cc2c[nH]cn2)NC(=O)[C@H]([C@@H](C)O)NC(=O)[C@H](CCCNC(=N)N)NC(=O)[C@H](CO)NC3=O)NC(=O)[C@H](CCCCN)NC(=O)[C@H](CC(=O)O)NC(=O)[C@H](CC(N)=O)NC(=O)[C@H](CC(=O)O)NC(=O)[C@@H]2CCCN2C1=O [compound 748] (H-DCLGAMRKCIPDNDKCCRPNLVCSRTH[Cit]WCKYVF-NH2; disulfide 2-17, 9-23, 16-30)	0.87 µM	24.2 µM	2.7 µM	
CC[C@H](C)[C@@H]1NC(=O)[C@@H]2CSSC[C@@H]3NC(=O)[C@H](C(C)C)NC(=O)[C@H](CC(C)C)NC(=O)[C@H](CC(N)=O)NC(=O)[C@@H]4CCCN4C(=O)[C@H](CCCNC(=N)N)NC(=O)[C@H](CSSC[C@H](NC(=O)[C@@H](N)CC(=O)O)C(=O)N[C@@H](CC(C)C)C(=O)NCC(=O)N[C@@H](Cc4ccc(C(=O)c5ccccc5)cc4)C(=O)N[C@@H](Cc4ccccc4)C(=O)N[C@@H](CCCNC(=N)N)C(=O)N[C@@H](CCCCN)C(=O)N2)NC(=O)[C@H](CSSC[C@@H](C(=O)N[C@@H](CCCCN)C(=O)N[C@@H](Cc2ccc(O)cc2)C(=O)N[C@H](C(=O)N[C@@H](Cc2ccccc2)C(N)=O)C(C)C)NC(=O)[C@H](Cc2c[nH]c4ccccc24)NC(=O)[C@H](CCCCN)NC(=O)[C@H](Cc2c[nH]cn2)NC(=O)[C@H]([C@@H](C)O)NC(=O)[C@H](CCCNC(=N)N)NC(=O)[C@H](CO)NC3=O)NC(=O)[C@H](CCCCN)NC(=O)[C@H](CC(=O)O)NC(=O)[C@H](CC(N)=O)NC(=O)[C@H](CC(=O)O)NC(=O)[C@@H]2CCCN2C1=O [compound 619] (H-DCLG[Bpa]FRKCIPDNDKCCRPNLVCSRTHKWCKYVF-NH2; disulfide 2-17, 9-23, 16-30)				IC50 (hNav1.7; [4]): 0.14 µM; IC50 (hNav1.5; [5]): 7.7 µM; IC50 (hNav1.3; [6]): 0.042 µM

Reference: US9340590B2 (priority 2011, dated 2016)
